The IC50 is the concentration that gives 50% inhibition.

The values below come from patent US20220370453A1 (Storm Therapeutics Ltd, priority 2019, published 2022).

Assay [1] deals with T1, BCDIN3D (Homo sapiens, UniProt Q7Z5W3).
T1 sequence (Q7Z5W3 1-292): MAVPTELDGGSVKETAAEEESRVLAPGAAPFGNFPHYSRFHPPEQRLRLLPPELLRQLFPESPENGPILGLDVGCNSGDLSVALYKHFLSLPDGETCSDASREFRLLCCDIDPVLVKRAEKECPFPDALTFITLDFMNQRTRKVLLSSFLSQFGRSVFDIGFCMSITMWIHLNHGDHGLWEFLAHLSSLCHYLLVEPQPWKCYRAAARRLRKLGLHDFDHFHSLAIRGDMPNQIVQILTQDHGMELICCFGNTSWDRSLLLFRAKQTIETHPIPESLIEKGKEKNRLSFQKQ
Nature of the assay: BCDIN3D IC50 RFMS (RapidFire) assay with mini-helix. Format: biochemical. To be noted: 25 nM enzyme. Put shortly: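 25 nM enzyme preincubated 10 min at room temperature with compound (1% DMSO) in 25 mM Tris pH 8.0, 10 mM DTT, 1 mM EDTA, 0.03% BSA. Reaction started with 0.2 μM mini-helix plus 6 μM SAM, run 1 h at 37 °C, quenched with TCA; SAH product quantified by RapidFire MS against isotopic SAH standards.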

Assay [2] has as its target T1, BCDIN3D. Nature of the assay: BCDIN3D InCellPulse thermal stability assay in transfected A549 cells. Type of assay: cell-based. To be noted: heat shock 58° C. 15 min. Put shortly:
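A549 cells transiently expressing BCDIN3D N-terminally fused to ePL ProLabel tag, 1500 cells/well, pre-incubated 1 h at 37 °C with compound (0.6% DMSO). Heat shock 58 °C for 15 min; remaining soluble fusion detected by split β-galactosidase complementation luminescence.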

Setting [3] is: mini-helix substrate 0.2 μM, SAM 6 μM.
Where [4] appears, read: transiently transfected A549 cells.
Setting [5] is: mini-helix 0.2 μM and SAM 6 μM as substrates, 1 hr at 37° C.
Setting [6] is: A549 cells transiently transfected with ePL-BCDIN3D, 1 h pre-incubation.

`Cc1nn(C)c2nc(NC[C@H](N)c3ccccc3)nc(NC(C)(C)C)c12` [Compound 4.128, N6-[(2R)-2-amino-2-phenylethyl]-N4-tert-butyl-1,3-dimethyl-1H-pyrazolo[3,4-d]pyrimidine-4,6-diamine]: the results for the IC50 against BCDIN3D [1] (setting [3]) and at BCDIN3D [2] (setting [4]) were 1.01 µM and 1.29 µM, respectively.
As for `[2H]C([2H])([2H])n1ncc2c(Nc3ccc(C(F)(F)F)cc3)nc(NCC(C)(N)c3ccccc3)nc21` (centres unmarked) [Compound 4.21, N6-(2-amino-2-phenyl-propyl)-1-(trideuteriomethyl)-N4-[4-(trifluoromethyl)phenyl]pyrazolo[3,4-d]pyrimidine-4,6-diamine], the IC50 at BCDIN3D [1] (setting [3]) worked out at 0.0428 µM; at BCDIN3D [2] (setting [4]) it was 0.218 µM.
On the same counts, the results for `Cn1ncc2c(NCc3ccc(F)cc3F)nc(NCC(N)c3ccccc3)nc21` (centres unmarked) [Compound 4.04, 6-N-(2-amino-2-phenylethyl)-4-N-[(2,4-difluorophenyl)methyl]-1-methylpyrazolo[3,4-d]pyrimidine-4,6-diamine] are 0.424 µM and 0.82 µM.
The corresponding values for `Cn1ncc2c(NC3CC(CO)(CCl)C3)nc(NCC(N)c3ccccc3)nc21` (centres unmarked) [Compound 4.81, [3-[[6-[(2-amino-2-phenyl-ethyl)amino]-1-methyl-pyrazolo[3,4-d]pyrimidin-4-yl]amino]-1-(chloromethyl)cyclobutyl]methanol] are 0.583 µM and 0.625 µM.
The corresponding values for `CCNc1nc(NCC(N)c2ccccc2)nc2c1cnn2C` (centres unmarked) [Compound 4.41, 6-N-(2-amino-2-phenylethyl)-4-N-ethyl-1-methylpyrazolo[3,4-d]pyrimidine-4,6-diamine] are 0.945 µM and 3.33 µM.
Turning to `Cn1ncc2c(Nc3cnc(C(F)(F)F)nc3)nc(NCC(C)(N)c3ccccc3)nc21` (centres unmarked) [Compound 4.11, N6-(2-amino-2-phenyl-propyl)-1-methyl-N4-[2-(trifluoromethyl)pyrimidin-5-yl]pyrazolo[3,4-d]pyrimidine-4,6-diamine], the IC50 against BCDIN3D [1] (setting [3]) came to 0.168 µM; on BCDIN3D [2] (setting [4]), 2.16 µM.
The corresponding values for `Cn1ncc2c(NC3CC(C)(F)C3)nc(NC[C@H](N)c3ccccc3)nc21` (stereo partly drawn) [Compound 4.97, N6-[(2R)-2-amino-2-phenyl-ethyl]-N4-(3-fluoro-3-methyl-cyclobutyl)-1-methyl-pyrazolo[3,4-d]pyrimidine-4,6-diamine] are 0.0843 µM and 0.176 µM.
Consider `Cn1ncc2c(Nc3ccccc3)nc(NCC3(N)COC3)nc21` [Compound 3.29, 6-N-[(3-Aminooxetan-3-yl)methyl]-1-methyl-4-N-phenylpyrazolo[3,4-d]pyrimidine-4,6-diamine], for which the IC50 at BCDIN3D [1] (setting [3]) worked out at 4.92 µM; on BCDIN3D [2] (setting [4]), 60 µM.
With `COc1ccc(CNc2nc(NCC(C)(C)N)nc3c2cnn3C)cc1` [Compound 1.27, N6-(2-amino-2-methylpropyl)-N4-[(4-methoxyphenyl)methyl]-1-methyl-1H-pyrazolo[3,4-d]pyrimidine-4,6-diamine], the IC50 against BCDIN3D [1] (setting [5]) stood at 2.88 µM; on BCDIN3D [2] (setting [6]), 5.34 µM.
Turning to `Cn1ncc2c(Nc3ccc(C(F)(F)F)cc3)nc(NCC3(N)CCC3)nc21` [Compound 3.08, N6-[(1-aminocyclobutyl)methyl]-1-methyl-N4-[4-(trifluoromethyl)phenyl]pyrazolo[3,4-d]pyrimidine-4,6-diamine], the IC50 at BCDIN3D [1] (setting [3]) was 0.0505 µM; against BCDIN3D [2] (setting [4]), 0.259 µM.
As to `Cc1nn(C)c2nc(NCC(C)(C)N)nc(Nc3cccc(C(F)(F)F)c3)c12` [Compound 1.33, N6-(2-amino-2-methylpropyl)-1,3-dimethyl-N4-[3-(trifluoromethyl)phenyl]-1H-pyrazolo[3,4-d]pyrimidine-4,6-diamine], the values for the IC50 on BCDIN3D [1] (setting [5]) and on BCDIN3D [2] (setting [6]) were 4.33 µM and 6.46 µM, respectively.
As for `Cn1ncc2c(N3CCCC3)nc(NCC(N)c3ccccc3)nc21` (centres unmarked) [Compound 4.48, N′-(1-methyl-4-pyrrolidin-1-ylpyrazolo[3,4-d]pyrimidin-6-yl)-1-phenylethane-1,2-diamine], the IC50 was 3.86 µM at BCDIN3D [1] (setting [3]) and 7.4 µM against BCDIN3D [2] (setting [4]).
On the same counts, the results for `Cn1ncc2c(Nc3ccc(F)cc3Cl)nc(NCC3(N)CC3)nc21` [Compound 2.14, 6-N-[(1-aminocyclopropyl)methyl]-4-N-(2-chloro-4-fluorophenyl)-1-methylpyrazolo[3,4-d]pyrimidine-4,6-diamine] are 5.96 µM and 9.59 µM.
The corresponding values for `C[C@H](Nc1nc(NC[C@H](N)c2ccccc2)nc2c1cnn2C)C(F)(F)F` [Compound 4.76, N6-[(2R)-2-amino-2-phenyl-ethyl]-1-methyl-N4-[(1S)-2,2,2-trifluoro-1-methyl-ethyl]pyrazolo[3,4-d]pyrimidine-4,6-diamine] are 0.136 µM and 0.232 µM.
Turning to `Cn1ncc2c(NC3CCC3)nc(NC[C@H](N)c3ccccc3)nc21` [Compound 4.83, N6-[(2R)-2-amino-2-phenyl-ethyl]-N4-cyclobutyl-1-methyl-pyrazolo[3,4-d]pyrimidine-4,6-diamine], the IC50 at BCDIN3D [1] (setting [3]) is 0.0755 µM; at BCDIN3D [2] (setting [4]), 0.0944 µM.
On the same counts, the results for `Cn1ncc2c(NC3CC3(C)C)nc(NC[C@H](N)c3ccccc3)nc21` (stereo partly drawn) [Compound 4.120, N6-[(2R)-2-amino-2-phenyl-ethyl]-N4-(2,2-dimethylcyclopropyl)-1-methyl-pyrazolo[3,4-d]pyrimidine-4,6-diamine] are 0.252 µM and 1.45 µM.
The corresponding values for `CN[C@@H](CNc1nc(NC(C)(C)C)c2cnn(C)c2n1)c1ccccc1` [Compound 5.29, N4-tert-butyl-1-methyl-N6-[(2R)-2-(methylamino)-2-phenylethyl]-1H-pyrazolo[3,4-d]pyrimidine-4,6-diamine] are 2.78 µM and 1.69 µM.
On the same counts, the results for `Cn1ncc2c(Nc3ccc(C(F)(F)F)cc3)nc(NCC3(N)CC(F)(F)C3)nc21` [Compound 3.12, 6-N-[(1-amino-3,3-difluorocyclobutyl)methyl]-1-methyl-4-N-[4-(trifluoromethyl)phenyl]pyrazolo[3,4-d]pyrimidine-4,6-diamine] are 0.479 µM and 1.57 µM.
As for `COc1cccc(-c2cccc(Nc3nc(NCCN)nc4c3cnn4C)c2)c1` [Compound 1.11, N6-(2-aminoethyl)-N4-{3′-methoxy-[1,1′-biphenyl]-3-yl}-1-methyl-1H-pyrazolo[3,4-d]pyrimidine-4,6-diamine], the IC50 against BCDIN3D [1] (setting [5]) turned out to be 0.762 µM; on BCDIN3D [2] (setting [6]), 1.06 µM.
`[2H]C([2H])([2H])n1ncc2c(NC(C)(C)C)nc(NCC(N)c3ccccc3)nc21` (centres unmarked) [Compound 4.52, N6-(2-amino-2-phenyl-ethyl)-N4-tert-butyl-1-(trideuteriomethyl)pyrazolo[3,4-d]pyrimidine-4,6-diamine]: the results for the IC50 against BCDIN3D [1] (setting [3]) and against BCDIN3D [2] (setting [4]) were 0.169 µM and 0.536 µM, respectively.
The corresponding values for `Cn1ncc2c(NC3(C)CCCC3)nc(NC[C@H](N)c3ccccc3)nc21` [Compound 4.116, N6-[(2R)-2-amino-2-phenyl-ethyl]-1-methyl-N4-(1-methylcyclopentyl)pyrazolo[3,4-d]pyrimidine-4,6-diamine] are 0.151 µM and 0.123 µM.
For the molecule `Cn1ncc2c(NCC3CC3(C)C)nc(NC[C@H](N)c3ccccc3)nc21` (stereo partly drawn) [Compound 4.62, N6-[(2R)-2-amino-2-phenyl-ethyl]-N4-[(2,2-dimethylcyclopropyl)methyl]-1-methyl-pyrazolo[3,4-d]pyrimidine-4,6-diamine], the values for the IC50 against BCDIN3D [1] (setting [3]) and against BCDIN3D [2] (setting [4]) were 0.0061 µM and 0.112 µM, respectively.
